The results in this text go back to US20080312184A1 (priority 2005, published 2008).

The test system of the assay is late blight phenylamide-resistant strain (zoospore+zoosporangia). The format is in vivo, tomatoes (cultivar: sekai-ichi). The settings on record: single active ingredient.
Setting [1] is: Table 3, treated concentration 10 ppm, examined after 5 days.
Setting [2] is: Table 3, treated concentration 5 ppm, examined after 5 days.

Like-named read-outs stand apart in the source and are kept apart here.

Turning to `CSC1=N[C@@](C)(c2ccccc2)C(=O)N1Nc1ccccc1` [Fenamidone, fenamidone], under setting [1], the “Control Value” is on record as 58.
For the molecule `CCNc1nc(CC)c(C(=O)NC(C#N)c2cccs2)s1` (centres unmarked) [Ethaboxam, ethaboxam], under setting [1], the “Control Value” was found to be 62.
Turning to `COC(=O)N(OC)c1ccccc1COc1ccn(-c2ccc(Cl)cc2)n1` [Pyraclostrobin, pyraclostrobin], the “Control Value” (Table 9 (Example B), treated concentration 5 ppm) is 62.
In the case of metiram, the “Control Value” (Table 3, treated concentration 50 ppm, examined after 5 days) is listed as 56.
For the molecule `CC(C)OC(=O)N[C@H](C(=O)N[C@H](C)c1nc2ccc(F)cc2s1)C(C)C` [Benthiavalicarb-isopropyl, benthiavalicarb-isopropyl], the “Control Value” under setting [2] is reported as 70.
As to `C[C@@]1(c2ccc(Oc3ccccc3)cc2)OC(=O)N(Nc2ccccc2)C1=O` (racemic) [Famoxadone, famoxadone], the “Control Value” (Table 3, treated concentration 20 ppm, examined after 5 days) is reported as 62.
Turning to `Cc1ccc(C(C)NC(=O)[C@@H](NC(=O)OC(C)C)C(C)C)cc1` (some centres unmarked) [Iprovalicarb, iprovalicarb], the “Control Value” under setting [2] worked out at 70.
Turning to `CC(C)CC(C)c1sccc1NC(=O)c1cn(C)nc1C(F)(F)F` (racemic) [P (penthiopyrad), (RS)—N-[2-(1,3-dimethylbutyl)thiophen-3-yl]-1-methyl-3-tri fluoromethyl-1H-pyrazole-4-carboxamide], the “Control Value” under setting [1] was determined as 20 and the “Control Value” (Table 9 (Example B), treated concentration 10 ppm) is given as 20.
In the case of `CCC(C)(NC(=O)c1cc(Cl)c(C)c(Cl)c1)C(=O)CCl` (centres unmarked) [Zoxamide, zoxamide], the “Control Value” under setting [1] came to 60.
As to `Cc1ccc(-c2c(Cl)nc(C#N)n2S(=O)(=O)N(C)C)cc1` [Cyazofamid, cyazofamid], under setting [1], the “Control Value” came out at 70.
